Reference: patent US11046647B2, “Activators of the unfolded protein response” (The Board of Trustees of the University of Illinois, priority 2018, dated 2021)

Key:
[1] = system: ERα Negative MCF-10A cells; test: Trypan Blue exclusion cell death assay, MCF-10A; assay type: cell-based; conditions: 75 nM, 24 hours
From the text: TRYPAN BLUE: For decades, viable cells have been measured by their ability to exclude the dye Trypan Blue. […] Dead cells, which have lost membrane integrity, take up the dye and are blue. Thus, the percentage of dead cells is the percentage of cells that are Trypan Blue positive out of the total cell population. Quantitative assessment of Trypan Blue uptake uses a cell counter from Fisher. Since the assay is instrument based, there is no observer bias in determining the percentage of Trypan Blue positive cells.
TRYPAN BLUE ASSAYS: Assays are performed on cells in 6 well plates: 300,000 cells are plated in each well of a 6-well plate in 3 ml of medium. After 24 hours, the DMSO vehicle or the indicated compound is added (in 1000th of the vol.) The cells incubated for an additional 24 hours, and then harvested in 0.25 ml of trypsin, followed after harvest by 0.75 ml of medium. The cells are spun down and resuspended in 100-200 μl of medium left that is over the cell pellet (resuspend cells by pipetting up and down a few times). Add 10 μl to 10 μl of trypan blue. Then 10 μl is inserted into the counting slide. After inserting the slide into the Fisher TC20 counting is automatic (these many cells are needed because an accurate ratio of Trypan Blue positive to Trypan Blue negative cells requires about 200 cells in the field the instrument counts).
In FIG. 28, neither the test compounds nor BHPI kill non-tumorigenic ERα Negative MCF-10A breast cells. ERα Negative MCF-10A cells were maintained for 24 hours in DMSO vehicle or 75 nM of BHPI or 75 nM of each of the indicated test compounds: 4, 6 and 105. Cell death was determined using the instrument-based Trypan Blue exclusion assay. (n=3±SEM).

[2] = system: sp-XBP1 mRNA (unfolded protein response); test: Induction of spliced XBP-1 mRNA (qRT-PCR), T47D-luciferase cells; assay type: cell-based, human; conditions: 100 nM
Method: ERα positive T47D-luciferase human breast cancer cells, were maintained for the indicated times in vehicle (Ctl, Control), 100 nM BHPI or 100 nM (−)-105. At the indicated times RNA was isolated and levels of sp-XBP1 mRNA quantitated by qRT-PCR. (n=3 ±SEM).

[3] = system: TYD-Luc cells (T47DERαD538G-luciferase human breast cancer cells) tumors; test: Orthotopic TDG-Luc mouse xenograft, bioluminescent imaging; assay type: in vivo
From the text: FIG. 41. SERK-F6 eradicates mutant ERα primary and metastatic breast cancer. a-c, TYS-luc. orthotopic tumors were established in NSG ovariectomized mice (no E2 pellet, 60 days to establish) and dosed daily as indicated (n=5-6). b, representative examples of bioluminescence images of SERK-F6 treated mice (7 days). d,e, TDG-luc. orthotopic tumors were established in NSG ovariectomized mice (no E2 pellet, 120 days to establish) and dosed daily as indicated (n=4-5). e, Bioluminescence image of SERK-F6 treated mouse with TDG-luc. tumor burden after 7 days. f, MYS-luc. orthotopic tumors were established in NSG ovariectomized mice (no E2 pellet, 45 days to establish) and dosed daily as indicated (n=4-5). g, MDG-luc. orthotopic tumors were established in NSG ovariectomized mice (no E2 pellet, 45 days to establish) and dosed daily as indicated (n=4-5). h, Metastatic model with MDG-luc. cells injected into the tail-vein of NSG ovariectomized mice (no E2 pellet, 1.5 months to establish) and mice were dosed daily as indicated (n=4-5).
FIG. 4A illustrates how IC50's for cell death were determined. 4B tests the ability BHPI, (−)-105, and 01-15 to kill. […] Large orthotopic breast tumors of TYD-Luc cells (T47DERαD538G-luciferase human breast cancer cells) were allowed to form for 4 months in immune suppressed NSG mice. […]

[4] = Pharmacokinetics, brain penetration and tolerability in mice; assay type: in vivo, mouse
Method: FIG. 40. SERK-F6 is tolerated, reaches biologically relevant concentrations, and crosses the blood-brain barrier in vivo. a, Serum concentrations of SERK-F6 after indicated doses, route of administration, and time. Concentration was determined via LC/MS/MS analysis. […] AUC: Area Under the Curve, Cmax: maximum concentration, t1/2: half-life. c,d, Mice (CD-1) were treated with the indicated doses and times, then sacrificed and their serum and brains collected. Concentrations were determined via LC/MS/MS analysis. […] Treatment arms: vehicle daily (n=3), vehicle weekly (n=3), fulv. weekly (5 mg/mouse, s.c., n=6), SERK-F6 daily (10 or 40 mg/kg p.o.). Vehicle arms were combined. g, Mass of tumors harvested from mice. h, observed murine weight during this MCF-7 study (n=6). i,j, Tumor measurements for MCF-7 bilateral orthotopic model (n=4-5).
The pharmacokinetics of SERK-F6 was measured in mice (FIG. 40A-B).

[5] = system: MYS and MDG cells (MCF-7 with Y537S or D538G ERα) tumors; test: MYS-luc / MDG-luc orthotopic tumors; assay type: in vivo, mouse; conditions: daily dosing
From the text: FIG. 41. […]
FIG. 43. SERK-F6-mediated eradication of MYS/MDG tumors is dependent on quantitative cell killing. a-b, MYS-luc. orthotopic tumors were established in NSG ovariectomized mice (no E2 pellet, ˜45 days to establish) and dosed daily as indicated (n=5-6), b, Treatment of MYS-luc, tumors were stopped after 21 daily doses of SERK-F6 and mice tumor burden was tracked via bioluminescence. […]

SMILES	cell death of MCF-10A cells [1]	UPR activation / induction of sp-XBP1 [2]	efficacy on oral administration ([3]; 40 mg/kg oral gavage, 3 days)	effect on D538G mutant tumors (TDG cell line) ([3]; daily dosing)	blood-brain barrier penetration ([4]; CD-1 mice, serum and brain LC/MS/MS)	effect on ERα tissues as measured by circulating estradiol levels ([4]; long-term treatment)	tolerability in vivo ([4]; mouse, in vivo)	concentrations reached in vivo ([4]; serum, LC/MS/MS)	tumor response [5]
O=C1Nc2c(C(F)(F)F)cccc2C1(c1ccc(O)cc1)c1ccc(OC(F)(F)F)cc1 (racemic) [(±)-105, 3-(4-hydroxyphenyl)-3-(4-(trifluoromethoxy)phenyl)-7-(trifluoromethyl)indolin-2-one]	neither BHPI nor any of the test compounds induce significant death	–	–	–	–	–	–	–	–
O=C1Nc2c(C(F)(F)F)cccc2C1(c1ccc(O)cc1)c1ccc(OC(F)(F)F)cc1 (single isomer, unassigned; (-)) [(−)-105, 3-(4-hydroxyphenyl)-3-(4-(trifluoromethoxy)phenyl)-7-(trifluoromethyl)indolin-2-one]	–	much stronger UPR hyper-activator and inducer of sp-XBP1 than BHPI	effective when administered orally	destruction of D538G mutant tumors	blood-brain barrier penetrant	does not ablate ERα tissues	well-tolerated	can achieve biologically relevant concentrations in-vivo	Dramatic tumor regressions were observed
